Assay results: patent US10457654B2 (GENENTECH, INC., priority 2017, dated 2019)
Structures can show the parent of a compound that is named as a salt.

Experiments:
[1] = target: T1, hNav1.7 (Homo sapiens (Human), UniProt Q15858); experiment: Patch voltage clamp electrophysiology assay (EP), Syncropatch 384PE, CHO cells expressing Nav1.7; format: cell-based; conditions: holding potential -50 mV; […] compound incubation; read-out: EP_SP hNav1.7 (Ex. 243B) IC50
Protocol: Electrophysiological Assay (EP) (In Vitro Assay)
The following voltage clamp electrophysiology studies were performed on representative compounds using cells heterologously expressing Nav1.7 or Nav1.5 channels. cDNAs for Nav1.7 (NM_002977) and Nav1.5 (AC137587) were stably expressed in Chinese Hamstr Ovary (CHO) cells and CHL (Chinese Hamster Lung) cells respectively. […] Internal solution consists of (in mM): 110 […], 10 […], 20 EGTA, and 10 Hepes (pH adjusted to 7.2); and external solution contains (in mM): 60 NMDG, 80 NaCl, 4 KCl, 1 MgCl2, 2 CaCl2, 2 D-Glucose monohydrate, 10 Hepes (pH adjusted to 7.4 with NaOH).
The chip is moved into the measuring head and the instrument primes the chip with external and internal solutions. […] cells are added to the chip from a cell hotel, and a negative pressure of −50 mBar is applied to form a seal. Following treatment with seal enhancer solution and wash-off with external solution, negative pressure of −250 mbar is applied for 1 second to achieve the whole-cell configuration, followed by three washing steps in external solution. 20 μl of compounds is added to 40 μl in each well (1:3 dilution of compounds), and after mixing, 20 μl is removed so the volume is retained at 40 μl.
For voltage protocol, an holding potential of −50 mV is applied during the whole experiment. A depolarizing step is applied to −10 mV for 10 ms, followed by a hyperpolarization step to −150 mV for 20 ms to allow channel recovery from inactivation. A second depolarizing step is applied from −150 mV to −10 mV for 10 ms, where currents were measured to derive blocking effects of compounds. Inhibition is determined based on 7.5 min of compound incubation.
Target sequence in this assay (Q15858 other isoform, or with tags, fused parts or gaps): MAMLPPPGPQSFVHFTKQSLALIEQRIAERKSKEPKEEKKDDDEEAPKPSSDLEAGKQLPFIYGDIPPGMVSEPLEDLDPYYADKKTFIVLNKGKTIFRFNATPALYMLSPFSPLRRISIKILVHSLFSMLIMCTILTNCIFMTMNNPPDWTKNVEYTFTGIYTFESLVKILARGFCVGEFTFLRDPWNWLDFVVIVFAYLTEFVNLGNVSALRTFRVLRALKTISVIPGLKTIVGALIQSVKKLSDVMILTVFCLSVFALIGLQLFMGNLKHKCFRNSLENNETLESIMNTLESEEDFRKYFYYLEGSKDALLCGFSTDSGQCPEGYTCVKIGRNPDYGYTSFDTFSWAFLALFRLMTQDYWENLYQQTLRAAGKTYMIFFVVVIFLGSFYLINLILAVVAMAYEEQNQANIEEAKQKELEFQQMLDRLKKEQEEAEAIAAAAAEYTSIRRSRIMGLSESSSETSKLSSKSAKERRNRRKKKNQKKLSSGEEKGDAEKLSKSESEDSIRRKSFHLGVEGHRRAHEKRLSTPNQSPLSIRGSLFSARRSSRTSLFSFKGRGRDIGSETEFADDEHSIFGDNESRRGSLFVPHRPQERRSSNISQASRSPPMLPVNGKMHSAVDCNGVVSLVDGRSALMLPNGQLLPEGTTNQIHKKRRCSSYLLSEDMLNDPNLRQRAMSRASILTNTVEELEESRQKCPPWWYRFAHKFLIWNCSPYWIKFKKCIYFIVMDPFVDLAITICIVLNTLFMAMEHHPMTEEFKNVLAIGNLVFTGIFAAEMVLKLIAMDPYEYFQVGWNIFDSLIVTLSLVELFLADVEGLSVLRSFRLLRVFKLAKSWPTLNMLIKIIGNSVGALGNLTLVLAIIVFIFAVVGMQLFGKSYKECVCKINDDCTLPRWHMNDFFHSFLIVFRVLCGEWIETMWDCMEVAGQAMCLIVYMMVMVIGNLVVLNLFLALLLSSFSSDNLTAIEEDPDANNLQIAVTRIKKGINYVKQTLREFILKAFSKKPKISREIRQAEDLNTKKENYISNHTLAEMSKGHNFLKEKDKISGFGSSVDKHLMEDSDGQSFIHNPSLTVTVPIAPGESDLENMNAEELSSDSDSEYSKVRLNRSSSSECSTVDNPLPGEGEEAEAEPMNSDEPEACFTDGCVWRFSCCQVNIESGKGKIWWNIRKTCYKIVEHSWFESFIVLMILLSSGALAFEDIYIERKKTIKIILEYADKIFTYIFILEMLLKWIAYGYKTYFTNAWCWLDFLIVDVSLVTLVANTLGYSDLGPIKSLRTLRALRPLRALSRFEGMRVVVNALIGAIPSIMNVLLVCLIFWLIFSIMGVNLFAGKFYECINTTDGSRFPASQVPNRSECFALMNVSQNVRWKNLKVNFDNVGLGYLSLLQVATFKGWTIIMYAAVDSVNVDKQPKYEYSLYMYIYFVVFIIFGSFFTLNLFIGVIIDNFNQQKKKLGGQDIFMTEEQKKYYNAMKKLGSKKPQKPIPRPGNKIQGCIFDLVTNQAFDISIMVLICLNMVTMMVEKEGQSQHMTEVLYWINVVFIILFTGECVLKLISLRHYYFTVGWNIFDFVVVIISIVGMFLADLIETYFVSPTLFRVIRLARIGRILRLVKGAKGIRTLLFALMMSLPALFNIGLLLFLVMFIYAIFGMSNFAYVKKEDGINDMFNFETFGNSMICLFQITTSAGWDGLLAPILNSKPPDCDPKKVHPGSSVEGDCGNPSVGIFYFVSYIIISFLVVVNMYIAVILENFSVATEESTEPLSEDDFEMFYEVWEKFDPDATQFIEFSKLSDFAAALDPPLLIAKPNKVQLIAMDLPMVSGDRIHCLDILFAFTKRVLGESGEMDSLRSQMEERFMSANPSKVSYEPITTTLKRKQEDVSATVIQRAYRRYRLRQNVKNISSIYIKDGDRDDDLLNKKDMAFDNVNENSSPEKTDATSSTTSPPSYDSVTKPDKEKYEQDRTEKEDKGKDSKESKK

[2] = target: T1, hNav1.7; experiment: Tritiated compound binding to membranes from cells expressing hNav1.7 and the β1 subunit, modified protocol (LBA, Ex. 243B); conditions: 300 pM [3H]compound, room temperature, read-out: Nav1.7 LBA (Ex. 243B) IC50
Target sequence in this assay (Q15858 whole entry, looked up): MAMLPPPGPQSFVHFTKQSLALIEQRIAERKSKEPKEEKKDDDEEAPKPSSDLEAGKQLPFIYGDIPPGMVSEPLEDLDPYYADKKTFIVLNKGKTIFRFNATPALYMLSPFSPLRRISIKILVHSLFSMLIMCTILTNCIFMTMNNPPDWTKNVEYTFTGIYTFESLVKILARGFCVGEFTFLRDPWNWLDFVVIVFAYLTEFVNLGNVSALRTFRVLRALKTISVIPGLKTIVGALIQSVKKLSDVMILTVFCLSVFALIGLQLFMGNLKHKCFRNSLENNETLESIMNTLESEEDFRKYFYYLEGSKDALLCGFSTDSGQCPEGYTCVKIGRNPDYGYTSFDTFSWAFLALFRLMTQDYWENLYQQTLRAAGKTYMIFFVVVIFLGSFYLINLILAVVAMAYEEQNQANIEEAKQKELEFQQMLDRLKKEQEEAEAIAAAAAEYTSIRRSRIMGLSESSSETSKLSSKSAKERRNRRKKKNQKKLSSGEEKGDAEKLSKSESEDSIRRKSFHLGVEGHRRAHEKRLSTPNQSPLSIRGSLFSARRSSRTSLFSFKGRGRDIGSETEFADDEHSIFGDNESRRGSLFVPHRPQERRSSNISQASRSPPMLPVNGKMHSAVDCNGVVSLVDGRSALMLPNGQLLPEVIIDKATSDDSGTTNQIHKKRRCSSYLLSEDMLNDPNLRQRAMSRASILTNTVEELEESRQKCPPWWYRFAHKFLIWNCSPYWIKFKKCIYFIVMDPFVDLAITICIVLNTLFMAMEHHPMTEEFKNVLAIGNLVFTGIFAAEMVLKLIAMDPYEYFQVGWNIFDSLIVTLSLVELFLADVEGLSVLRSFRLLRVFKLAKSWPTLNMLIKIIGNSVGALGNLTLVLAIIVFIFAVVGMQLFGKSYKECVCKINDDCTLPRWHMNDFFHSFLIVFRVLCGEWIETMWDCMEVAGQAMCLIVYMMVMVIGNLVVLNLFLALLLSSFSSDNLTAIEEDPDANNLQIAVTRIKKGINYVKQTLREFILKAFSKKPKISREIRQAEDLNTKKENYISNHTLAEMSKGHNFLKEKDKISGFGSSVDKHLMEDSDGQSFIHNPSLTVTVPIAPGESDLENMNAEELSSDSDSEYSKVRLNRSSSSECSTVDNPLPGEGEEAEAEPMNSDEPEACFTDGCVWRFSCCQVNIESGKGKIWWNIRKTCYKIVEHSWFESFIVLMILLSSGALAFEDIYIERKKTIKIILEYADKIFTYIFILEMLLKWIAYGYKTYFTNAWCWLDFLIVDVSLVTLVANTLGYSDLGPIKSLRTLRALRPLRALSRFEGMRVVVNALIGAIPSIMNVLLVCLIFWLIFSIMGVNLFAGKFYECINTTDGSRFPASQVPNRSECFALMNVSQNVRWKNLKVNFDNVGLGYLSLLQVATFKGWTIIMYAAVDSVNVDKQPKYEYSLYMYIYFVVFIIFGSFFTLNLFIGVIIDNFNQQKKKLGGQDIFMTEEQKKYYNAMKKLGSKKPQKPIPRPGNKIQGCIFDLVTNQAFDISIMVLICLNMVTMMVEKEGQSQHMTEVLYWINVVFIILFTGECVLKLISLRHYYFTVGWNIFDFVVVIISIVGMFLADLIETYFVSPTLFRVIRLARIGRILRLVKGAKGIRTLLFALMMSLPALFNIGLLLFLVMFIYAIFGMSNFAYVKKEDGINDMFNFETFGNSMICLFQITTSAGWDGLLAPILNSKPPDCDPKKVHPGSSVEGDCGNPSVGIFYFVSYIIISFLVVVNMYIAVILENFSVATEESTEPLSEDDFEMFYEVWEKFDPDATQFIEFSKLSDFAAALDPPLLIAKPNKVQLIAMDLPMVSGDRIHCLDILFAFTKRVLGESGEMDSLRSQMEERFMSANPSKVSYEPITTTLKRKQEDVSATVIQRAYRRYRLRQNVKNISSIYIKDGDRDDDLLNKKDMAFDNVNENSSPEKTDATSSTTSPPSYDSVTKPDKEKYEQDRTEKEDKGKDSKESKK
Target sequence in this assay (Q07699 whole entry partner, looked up): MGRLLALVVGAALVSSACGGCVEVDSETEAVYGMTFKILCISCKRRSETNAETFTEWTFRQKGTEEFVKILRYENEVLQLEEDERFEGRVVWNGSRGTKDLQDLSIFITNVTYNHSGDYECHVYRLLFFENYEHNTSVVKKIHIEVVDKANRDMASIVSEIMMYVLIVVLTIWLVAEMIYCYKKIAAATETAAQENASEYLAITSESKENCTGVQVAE

| Compound | IC50 [1] [nM] | IC50 [2] [nM] |
| --- | --- | --- |
| CN(C)[C@H]1CCCC[C@@H]1Oc1cc(F)c(S(=O)(=O)Nc2cccc(F)n2)cc1C1CC1 [Example 114, 5-Cyclopropyl-4-(((1S,2S)-2-(dimethylamino)cyclohexyl)oxy)-2-fluoro-N-(6-fluoropyridin-2-yl)benzenesulfonamide formate] | 33.1 | 264 |
| CN(CC(C)(C)O)[C@H]1CCCC[C@@H]1Nc1cc(F)c(S(=O)(=O)Nc2nccs2)cc1Cl [Example 116, 5-Chloro-2-fluoro-4-(((1S,2S)-2-((2-hydroxy-2-methylpropyl)(methyl)amino)cyclohexyl)amino)-N-(thiazol-2-yl)benzenesulfonamide formate] | 18.2 | 307 |
| O=S(=O)(Nc1cccc(F)n1)c1cc(Cl)c(N[C@@H]2CCCC[C@H]2N2CCCCC2)cc1F [Example 117, 5-chloro-2-fluoro-N-(6-fluoropyridin-2-yl)-4-(((1R,2R)-2-(piperidin-1-yl)cyclohexyl)amino)benzenesulfonamide] | 970 | 2220 |
| CN(CCCO)[C@H]1CCCC[C@@H]1Nc1cc(F)c(S(=O)(=O)Nc2cccc(F)n2)cc1Cl [Example 122, 5-chloro-2-fluoro-N-(6-fluoropyridin-2-yl)-4-(((1S,2S)-2-((3-hydroxypropyl)(methyl)amino)cyclohexyl)amino)benzenesulfonamide] | 33.6 | 205 |
| O=S(=O)(Nc1cccc(F)n1)c1cc(Cl)c(N[C@H]2CCCC[C@@H]2N2CCCCC2)cc1F [Example 123, 5-chloro-2-fluoro-N-(6-fluoropyridin-2-yl)-4-(((1S,2S)-2-(piperidin-1-yl)cyclohexyl)amino)benzenesulfonamide] | 4.54 | 17.5 |
| CN(CCC(C)(C)O)[C@H]1CCCC[C@@H]1Nc1cc(F)c(S(=O)(=O)Nc2cccc(F)n2)cc1Cl [Example 124, 5-chloro-2-fluoro-N-(6-fluoropyridin-2-yl)-4-(((1S,2S)-2-((3-hydroxy-3-methylbutyl)(methyl)amino)cyclohexyl)amino)benzenesulfonamide] | 107 | 1230 |
| CN(CCC#N)[C@H]1CCCC[C@@H]1Nc1cc(F)c(S(=O)(=O)Nc2nccs2)cc1Cl [Example 125, 5-Chloro-4-(((1S,2S)-2-((2-cyanoethyl)(methyl)amino)cyclohexyl)amino)-2-fluoro-N-(thiazol-2-yl)benzenesulfonamide] | 7.53 | 204 |
| CN(CCO)[C@H]1CCCC[C@@H]1Nc1cc(F)c(S(=O)(=O)Nc2cccc(F)n2)cc1C1CC1 [Example 128, 5-Cyclopropyl-2-fluoro-N-(6-fluoropyridin-2-yl)-4-(((1S,2S)-2-((2-hydroxyethyl)(methyl)amino)cyclohexyl)amino)benzenesulfonamide formate] | 9.56 | 22.8 |
| CN(C)[C@H]1C[C@@H](c2cccc(C(F)(F)F)c2)CC[C@@H]1Nc1cc(F)c(S(=O)(=O)Nc2nccs2)cc1Cl [Example 129, 5-chloro-4-(((1S,2S,4S)-2-(dimethylamino)-4-(3-(trifluoromethyl)phenyl)cyclohexyl)amino)-2-fluoro-N-(thiazol-2-yl)benzenesulfonamide formate] | 0.372 | 0.255 |
| CN(C)[C@H]1CC=C(C(F)(F)F)C[C@@H]1Nc1cc(F)c(S(=O)(=O)Nc2nccs2)cc1Cl [Example 130, 5-chloro-4-(((1S,6S)-6-(dimethylamino)-3-(trifluoromethyl)cyclohex-3-en-1-yl)amino)-2-fluoro-N-(thiazol-2-yl)benzenesulfonamide] | 9.92 | 75.9 |
| O=S(=O)(Nc1nccs1)c1cc(Cl)c(N[C@H]2CCCC[C@@H]2N2CCC(O)CC2)cc1F [Example 131, 5-chloro-2-fluoro-4-(((1 S,2S)-2-(4-hydroxypiperidin-1-yl)cyclohexyl)amino)-N-(thiazol-2-yl)benzenesulfonamide] | 5.95 | 201 |
| CN(C)[C@H]1CCCC[C@@H]1N1CCOc2cc(S(=O)(=O)Nc3nccs3)c(F)cc21 [Example 132, 4-((1 S,2S)-2-(dimethylamino)cyclohexyl)-6-fluoro-N-(thiazol-2-yl)-3,4-dihydro-2H-benzo[b][1,4]oxazine-7-sulfonamide] | 14 | 306 |
| O=S(=O)(Nc1nccs1)c1cc(Cl)c(N[C@H]2CCCC[C@@H]2N2CCC[C@H]2CO)cc1F [Example 134, 5-chloro-2-fluoro-4-(((1S,2S)-2-((S)-2-(hydroxymethyl)pyrrolidin-1-yl)cyclohexyl)amino)-N-(thiazol-2-yl)benzenesulfonamide] | 18.6 | 279 |
| CN(CCCF)[C@H]1CCCC[C@@H]1Nc1cc(F)c(S(=O)(=O)Nc2nccs2)cc1Cl [Example 135, 5-chloro-2-fluoro-4-(((1S,2S)-2-((3-fluoropropyl)(methyl)amino)cyclohexyl)amino)-N-(thiazol-2-yl)benzenesulfonamide] | 32.8 | 313 |
| CN(CC1(F)CC1)[C@H]1CCCC[C@@H]1Nc1cc(F)c(S(=O)(=O)Nc2nccs2)cc1Cl [Example 136, 5-chloro-2-fluoro-4-(((1S,2S)-2-(((1-fluorocyclopropyl)methyl)(methyl)amino)cyclohexyl)amino)-N-(thiazol-2-yl)benzenesulfonamide] | 30.1 | 493 |
| CN(C)[C@H]1C[C@H](c2cccc(C(F)(F)F)c2)CC[C@@H]1Nc1cc(F)c(S(=O)(=O)Nc2nccs2)cc1Cl [Example 137, 5-chloro-4-(((1S,2S,4R)-2-(dimethylamino)-4-(3-(trifluoromethyl)phenyl)cyclohexyl)amino)-2-fluoro-N-(thiazol-2-yl)benzenesulfonamide] | 1.24 | 3.57 |
| CN(CCO)[C@H]1C[C@@H](C(F)(F)F)CC[C@@H]1Nc1cc(F)c(S(=O)(=O)Nc2nccs2)cc1Cl [Example 138, 5-chloro-2-fluoro-4-(((1S,2S,4S)-2-((2-hydroxyethyl)(methyl)amino)-4-(trifluoromethyl)cyclohexyl)amino)-N-(thiazol-2-yl)benzenesulfonamide] | 3.21 | 9.43 |
| CN(C[C@@H](O)C1CC1)[C@H]1CCCC[C@@H]1Nc1cc(F)c(S(=O)(=O)Nc2nccs2)cc1Cl [Example 139, 5-Chloro-4-(((1S,2S)-2-(((S)-2-cyclopropyl-2-hydroxyethyl)(methyl)amino)cyclohexyl)amino)-2-fluoro-N-(thiazol-2-yl)benzenesulfonamide] | 45.6 | 291 |
| CN(c1cnn(C)c1)[C@H]1CCCC[C@@H]1Nc1cc(F)c(S(=O)(=O)Nc2nccs2)cc1Cl [Example 140, 5-chloro-2-fluoro-4-(((1S,2S)-2-(methyl(1-methyl-1H-pyrazol-4-yl)amino)cyclohexyl)amino)-N-(thiazol-2-yl)benzenesulfonamide] | 13.2 | 170 |
| CN(C)[C@H]1CC=CC[C@@H]1Nc1cc(F)c(S(=O)(=O)Nc2nccs2)cc1Cl [Example 141, 5-Chloro-4-(((1S,6S)-6-(dimethylamino)cyclohex-3-en-1-yl)amino)-2-fluoro-N-(thiazol-2-yl)benzenesulfonamide formate] | 12.7 | 275 |
